This assay concerns 762968-020-R-J2-PDC spheroids viability. In words: Anticancer human tumor 762968-020-R-J2-PDC patient-derived colon carcinoma cell line growth inhibition [TAK]. The conditions noted are these: spheroids with HUVEC and MSC; for viability, T/C: stronger effect = lower value. An excerpt: Combinatorial screen of targeted agents with TAK-243 and ipatasertib in multi-cell type tumor spheroids
A high-throughput screen of multi-cell type tumor spheroids was designed to identify active combinations of targeted small molecules and TAK-243 or ipatasertib. Complex spheroids include a stromal component modeled by human endothelial cells (HUVEC) and fibroblasts modeled by human mesenchymal stem cells (MSCs). The concentration ranges selected for each drug and investigational agent were based upon clinically achievable concentrations if the clinical Cmax of the agent was known.
Compounds. The drugs and investigational agents: TAK-243 (785004), ipatasertib (767898), everolimus (733504), selumetinib (741078), bortezomib (756655), trametinib (758246), ixazomib (758254), vemurafenib (761431), dabrafenib (764134), sapanisertib (764658), alpelisib (765974), and copanlisib (816437), were obtained from the National Cancer Institute (NCI) Developmental Therapeutics Program Chemical Repository. The FDA-approved anticancer drug set is available from the NCI Developmental Therapeutics Program. […] The stock solutions were prepared in dimethyl sulfoxide (DMSO, Sigma-Aldrich, St. Louis, MO, cat. D2650) at 800-fold the tested concentration and stored at -70 degrees C prior to their use. All drugs and investigational agents were tested over a range starting from a high concentration at or near the clinical Cmax and decreasing in half-log increments. If the clinical Cmax for an agent had not been determined, the highest concentration tested was 10 microM.
NCI60 Cell Culture. NCI60 cell lines were obtained from the NCI Developmental Therapeutics Program Tumor Repository. For each lot of cells, the Repository performed Applied Biosystems AmpFLSTR Identifiler testing with PCR amplification to confirm consistency with the published Identifier STR profile for each cell line. Cells were kept in continuous culture for no more than 20 passages. The optimal seeding densities for each of the cell lines at each time point assessed were determined prior to performing the concentration response studies. Briefly, the NCI60 human tumor lines were grown as monolayers in RPMI 1640 medium supplemented with 10% FBS and 2 mmol/L L-glutamine.
An additional 2 lines were from the NCI60 cell line panel including melanomas, MALME-3M and SK-MEL-2. Pooled donor human umbilical vein endothelial cells (HUVEC, Lonza, cat. CC-2519) and human mesenchymal stem cells (hMSC, Lonza, cat. PT-2501) were purchased from Lonza (Walkersville, MD).
PDMR cell lines were grown in complete medium (DC medium): Dulbecco's modified Eagle's medium (DMEM)/F12 supplemented with 5% fetal bovine serum (FBS), 2 mM L-glutamine, 100 U/mL penicillin and 100 µg/ml streptomycin, 0.4 µg/ml hydrocortisone, 10 ng/ml epidermal growth factor (EGF) recombinant human protein, 24 µg/mL adenine, and 0.1 mg/mL primocin. During culture from frozen stock vials, PDMR cells were cultured in the same medium containing 10 µM Y-27632 (see Table 3). The PDCs were cultured in complete DMEM/F12 media without 10 microM Y-27632 dihydrochloride for at least two passages prior to the screen. The pooled donor HUVEC and hMSC were cultured in endothelial cell growth medium 2 (PromoCell, Heidelberg, Germany, cat. C-22011) and mesenchymal stem cell growth medium 2 (PromoCell, cat. C-28009), respectively. For all experiments, HUVEC and hMSC were used at passages </=5.
For the pre-screen, cell seeding densities were determined from a titration spanning the range from 5,000 to 313 cells per well. The mct-spheroids including 60% malignant cells, 25% HUVEC and 15% MSC dispensed as a mixture into U-bottom Ultra-Low Attachment 384-well plates (Corning, NY)
High-throughput Drug Combination Screening.
Prior to their inoculation into 384-well plates, malignant cells, HUVEC, and hMSC were removed from T flasks using TrypLE express (Thermo Fisher Scientific, cat. 12605036) and harvested by centrifugation for 5 min at 233 x g. […]

Each structure is given as a SMILES string. “And” between values parts separate entries of the source, which are not always exact repeats. Equal entries are not always repeated.

Experimental findings from PubChem BioAssay AID2060349 (Molecular Pharmacology Branch, DTP, NCI, 2025) are described below.
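Further: spheroids exposed to drug for 7 days before readout.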

As for `CC(=O)Nc1cccc(-n2c(=O)n(C3CC3)c(=O)c3c(Nc4ccc(I)cc4F)n(C)c(=O)c(C)c32)c1`, the viability, T/C is 98.7% and 103% (compound 94.9 pM); 103% and 97.5% (compound 0.0003 µM); 97.3% (compound 0.000949 µM); 86.9% and 80.5% (compound 0.003 µM); 60.6% and 73.2% (compound 0.00949 µM); 41.2% and 39% (compound 0.03 µM). In addition, the half-maximal inhibitory concentration (IC50) (curve of compound) was 17.8 nM and 20.4 nM.

For `CC(C)(C)c1nc(-c2cccc(NS(=O)(=O)c3c(F)cccc3F)c2F)c(-c2ccnc(N)n2)s1`, the viability, T/C (compound 0.0316 µM) is 85.6% and 94.4%; the viability, T/C (compound 0.1 µM) was 82.9% and 88.2%; the viability, T/C (compound 0.316 µM) is 92.5% and 85.2%; the viability, T/C (compound 1 µM) was 86.4% and 81%; the viability, T/C (compound 3.16 µM) was 90.5% and 88.5%; the viability, T/C (compound 10 µM) is 99.3% and 86.4%. For the same compound, the IC50 (curve of compound) is > 10000 nM.

With `CC(C)CC(NC(=O)C(Cc1ccccc1)NC(=O)c1cnccn1)B(O)O` (stereo not given), the viability, T/C (compound 31.6 pM) is 94.6% and 101%; the viability, T/C (compound 0.0001 µM) was 102% and 101%; the viability, T/C (compound 0.000316 µM) is 108% and 96.2%; the viability, T/C (compound 0.001 µM) was 103% and 99.8%; the viability, T/C (compound 0.00316 µM) was 109% and 99%; the viability, T/C (compound 0.01 µM) was 90.6% and 93.7%. Further, the IC50 (curve of compound) is > 10 nM.

Consider `CC(C)CC(NC(=O)CNC(=O)c1cc(Cl)ccc1Cl)B1OC(=O)CC(CC(=O)O)(C(=O)O)O1` (stereo not given), for which the viability, T/C is, setting by setting: (compound 0.000316 µM) 100% and 110%; (compound 0.001 µM) 109% and 98.2%; (compound 0.00316 µM) 104% and 108%; (compound 0.01 µM) 97.5% and 107%; (compound 0.0316 µM) 96.1% and 98%; (compound 0.1 µM) 78.6% and 80.6%. Also, under “curve of compound”, the IC50 was > 100 nM.

Consider `CC(C)NCC(C(=O)N1CCN(c2ncnc3c2C(C)CC3O)CC1)c1ccc(Cl)cc1` (stereo not given), for which the viability, T/C (compound 0.3 µM) was 103% [middle of 10 runs]; the viability, T/C (compound 0.949 µM) was 101% [middle of 10 runs]; the viability, T/C (compound 3 µM) was 104% [middle of 10 runs]; the viability, T/C (compound 9.49 µM) was 99.7% [middle of 10 runs]. For the same compound, the IC50 runs as follows: (compound alone, run of 02/28/2020) 17200 nM; (compound alone, run of 03/19/2020) > 30000 nM.

As to `CC(C)n1nc(-c2ccc3oc(N)nc3c2)c2c(N)ncnc21`, the viability, T/C runs as follows: (compound 0.000316 µM) 99% and 96.9%; (compound 0.001 µM) 99% and 101%; (compound 0.00316 µM) 98.2% and 101%; (compound 0.01 µM) 94.8% and 99.8%; (compound 0.0316 µM) 89.5% and 103%; (compound 0.1 µM) 66.5% and 83.3%. Moreover, the IC50 (curve of compound) was > 100 nM.

Take `CCCS(=O)(=O)Nc1ccc(F)c(C(=O)c2c[nH]c3ncc(-c4ccc(Cl)cc4)cc23)c1F`: the viability, T/C (compound 0.316 µM) was 88.9% and 96.2%; the viability, T/C (compound 1 µM) is 87.8% and 96.9%; the viability, T/C (compound 3.16 µM) was 90.3% and 92.5%; the viability, T/C (compound 10 µM) was 73.6% and 62.2%; the viability, T/C (compound 31.6 µM) is 99.2% and 102%; the viability, T/C (compound 100 µM) is 90.3% and 105%. In addition, the IC50 (curve of compound) was > 100000 nM.

As to `COC1CC2CCC(C)C(O)(O2)C(=O)C(=O)N2CCCCC2C(=O)OC(C(C)CC2CCC(OCCO)C(OC)C2)CC(=O)C(C)C=C(C)C(O)C(OC)C(=O)C(C)CC(C)C=CC=CC=C1C` (stereo not given), the viability, T/C reads like this: (compound 0.000316 µM) 103% and 106%; (compound 0.001 µM) 99.4% and 100%; (compound 0.00316 µM) 104% and 96.8%; (compound 0.01 µM) 105% and 107%; (compound 0.0316 µM) 101% and 107%; (compound 0.1 µM) 99.1% and 95.3%. The half-inhibitory concentration (IC50) (curve of compound) was > 100 nM.

Turning to `COc1c(OCCCN2CCOCC2)ccc2c3n(c(=NC(=O)c4cnc(N)nc4)nc12)CCN3`, the viability, T/C by setting is: (compound 0.00316 µM) 101% and 102%; (compound 0.01 µM) 95.3% and 72%; (compound 0.0316 µM) 93% and 53.6%; (compound 0.1 µM) 80.6% and 42.5%; (compound 0.316 µM) 76.2% and 50.6%; (compound 1 µM) 73.9% and 52.4%.

Turning to `Cc1nc(NC(=O)N2CCCC2C(N)=O)sc1-c1ccnc(C(C)(C)C(F)(F)F)c1` (stereo not given), the viability, T/C (compound 0.0316 µM) is 113% and 104%; the viability, T/C (compound 0.1 µM) is 106% and 95.2%; the viability, T/C (compound 0.316 µM) was 106% and 93.9%; the viability, T/C (compound 1 µM) was 92.5% and 89.1%; the viability, T/C (compound 3.16 µM) is 91.7% and 87.4%; the viability, T/C (compound 10 µM) is 92.9% and 87.8%. In addition, the concentration for half-maximal inhibition (IC50) (curve of compound) was > 10000 nM.

As to `Cn1cnc2c(F)c(Nc3ccc(Br)cc3Cl)c(C(=O)NOCCO)cc21`, the viability, T/C is 103% and 98.9% (compound 0.00949 µM); 93.8% and 91.6% (compound 0.03 µM); 89% and 82% (compound 0.0949 µM); 83.4% and 78.8% (compound 0.3 µM); 67.7% and 64.5% (compound 0.949 µM); 49.1% and 44.4% (compound 3 µM). Besides, the IC50 (curve of compound) was 2950 nM and 2240 nM.

A word on the viability, T/C: it is the ratio of treated to control. One may read the IC50 as the concentration that inhibits the measured activity by half.
